In patent US7388025B2, “3-aryl-isoxazole-4-carbonyl-benzofuran derivatives” (Hoffman-La Roche Inc., priority 2005, dated 2008):

Biological target: T1, human GABA A receptor α5β3γ2 (Homo sapiens, UniProt P18507+P31644)
T1 construct: expressed in transfected cells; host or cells: HEK293 cells, transiently transfected; membranes prepared from them
Test: [3H]flumazenil competition binding, HEK293 cells expressing human GABA A α5β3γ2 receptors
Settings: human α5β3γ2 in HEK293 (transiently transfected), 0.5 nM [3H]flumazenil, mean of two determinations; read-out: Ki[nM] hα5
Method: Membrane Preparation and Binding Assay
The affinity of compounds at GABA A receptor subtypes was measured by competition for [3H]flumazenil (85 Ci/mmol; Roche) binding to HEK293 cells expressing rat (stably transfected) or human (transiently transfected) receptors of composition α1β3γ2, α2β3γ2, α3β3γ2 and α5β3γ2.
Cell pellets were suspended in Krebs-tris buffer (4.8 mM KCl, 1.2 mM CaCl2, 1.2 mM MgCl2, 120 mM NaCl, 15 mM Tris; pH 7.5; binding assay buffer), homogenized by polytron for ca. 20 sec on ice and centrifuged for 60 min at 4° C. (50000 g; Sorvall, rotor: SM24=20000 rpm). The cell pellets were resuspended in Krebs-tris buffer and homogenized by polytron for ca. 15 sec on ice. Protein was measured (Bradford method, Bio-Rad) and aliquots of 1 mL were prepared and stored at −80° C.
Radioligand binding assays were carried out in a volume of […] (96-well plates) which contained […] of cell memebranes, [3H]flumazenil at a concentration of 1 nM for α1, α2, α3 subunits and 0.5 nM for α5 subunits and the test compound in the range of […]. Nonspecific binding was defined by 10^−5 M diazepam and typically represented less than 5% of the total binding. Assays were incubated to equilibrium for 1 hour at 4° C. and harvested onto GF/C uni-filters (Packard) by filtration using a Packard harvester and washing with ice-cold wash buffer (50 mM Tris; pH 7.5). After drying, filter-retained radioactivity was detected by liquid scintillation counting. Ki values were calculated using Excel-Fit (Microsoft) and are the means of two determinations.

Ki: 6.5 nM
Compound: CCOc1cccc2cc(C(=O)c3c(-c4ccccc4)noc3C)oc12 [Example 6, (7-Ethoxy-benzofuran-2-yl)-(5-methyl-3-phenyl-isoxazol-4-yl)-methanone]
